target: GST-Bcl-2 (Homo sapiens (Human), UniProt P10415); experiment: Time Resolved-Fluorescence Resonance Energy Transfer (TR-FRET) Bcl-2 binding assay; conditions: not given
Summary of the method: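 Competition TR-FRET: GST-Bcl-2 with fluorescent Bak peptide probe and Tb-anti-GST antibody, compounds serially diluted from 50 μM (2× start, 10% DMSO).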

Chain of GST-Bcl-2 (P10415 whole entry): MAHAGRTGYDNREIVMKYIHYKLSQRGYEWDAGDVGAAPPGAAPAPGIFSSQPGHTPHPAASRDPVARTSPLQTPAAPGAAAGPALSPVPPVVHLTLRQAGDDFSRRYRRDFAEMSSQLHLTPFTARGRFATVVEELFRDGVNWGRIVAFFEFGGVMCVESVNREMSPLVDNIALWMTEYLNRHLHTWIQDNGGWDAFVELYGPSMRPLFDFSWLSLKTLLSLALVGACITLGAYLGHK

Which Ki does the source give for CC1(C)CCC(CN2CCN(c3ccc(C(=O)NS(=O)(=O)c4ccc(N[C@H]5CC[C@H](N6CCN(C7CCOCC7)CC6)CC5)c([N+](=O)[O-])c4)c(Oc4cc5cc[nH]c5cc4F)c3)CC2)=C(c2ccc(Cl)cc2)C1 [Example 336, Trans-4-(4-{[2-(4-chlorophenyl)-4,4-dimethylcyclohex-1-en-1-yl]methyl}piperazin-1-yl)-2-[(6-fluoro-1H-indol-5-yl)oxy]-N-[(3-nitro-4-{[4-(4-tetrahydro-2H-pyran-4-ylpiperazin-1-yl)cyclohexyl]amino}phenyl)sulfonyl]benzamide] here?
Its Ki is under 0.01 nM.

Which Ki does the source give for CC1(C)CCC(CN2CCN(c3ccc(C(=O)NS(=O)(=O)c4ccc(NC[C@H]5CC[C@H](O)CC5)c([N+](=O)[O-])c4)c(Oc4cc5cc[nH]c5cc4F)c3)CC2)=C(c2ccc(Cl)cc2)C1 [Example 338, Trans-4-(4-{[2-(4-chlorophenyl)-4,4-dimethylcyclohex-1-en-1-yl]methyl}piperazin-1-yl)-2-[(6-fluoro-1H-indol-5-yl)oxy]-N-[(4-{[(4-hydroxycyclohexyl)methyl]amino}-3-nitrophenyl)sulfonyl]benzamide] here?
The Ki was under 0.01 nM.

same assay, conditions: GST-Bcl-2 1 nM, F-Bak peptide probe 100 nM, Tb-anti-GST antibody 1 nM; Ki by Wang's equation

With CC1(C)CCC(CN2CCN(c3ccc(C(=O)NS(=O)(=O)c4ccc(NC5CCN(C6CCOCC6)CC5)c([N+](=O)[O-])c4)c(Oc4ccc(N)nc4)c3)CC2)=C(c2ccc(Cl)cc2)C1 [Example 261, 2-[(6-aminopyridin-3-yl)oxy]-4-(4-{[2-(4-chlorophenyl)-4,4-dimethylcyclohex-1-en-1-yl]methyl}piperazin-1-yl)-N-({3-nitro-4-[(1-tetrahydro-2H-pyran-4-ylpiperidin-4-yl)amino]phenyl}sulfonyl)benzamide] as the molecule, how does the Ki read?
The Ki was 0.186 nM.

CC1(C)CCC(CN2CCN(c3ccc(C(=O)NS(=O)(=O)c4ccc(NN5CCOCC5)c([N+](=O)[O-])c4)c(Oc4cccc(Cl)c4)c3)CC2)=C(c2ccc(Cl)cc2)C1 [Example 253, 2-(3-chlorophenoxy)-4-(4-{[2-(4-chlorophenyl)-4,4-dimethylcyclohex-1-en-1-yl]methyl}piperazin-1-yl)-N-{[4-(morpholin-4-ylamino)-3-nitrophenyl]sulfonyl}benzamide] was tested. Which Ki did it give?
Its Ki is 0.05 nM.

How did the Ki turn out when CC1(C)CCC(CN2CCN(c3ccc(C(=O)NS(=O)(=O)c4ccc(OCC5(F)CCN(C(CF)CF)CC5)c([N+](=O)[O-])c4)c(Oc4cnc(N)c(Cl)c4)c3)CC2)=C(c2ccc(Cl)cc2)C1 [Example 371, 2-[(6-amino-5-chloropyridin-3-yl)oxy]-4-(4-{[2-(4-chlorophenyl)-4,4-dimethylcyclohex-1-en-1-yl]methyl}piperazin-1-yl)-N-{[4-({4-fluoro-1-[2-fluoro-1-(fluoromethyl)ethyl]piperidin-4-yl}methoxy)-3-nitrophenyl]sulfonyl}benzamide] was run?
The Ki was under 0.01 nM.

How did the Ki turn out when CC1(C)CCC(CN2CCN(c3ccc(C(=O)NS(=O)(=O)c4ccc(NCCCN5CCOCC5)c([N+](=O)[O-])c4)c(Oc4cccc(Cl)c4F)c3)CC2)=C(c2ccc(Cl)cc2)C1 [Example 148, 2-(3-chloro-2-fluorophenoxy)-4-(4-{[2-(4-chlorophenyl)-4,4-dimethylcyclohex-1-en-1-yl]methyl}piperazin-1-yl)-N-({4-[(3-morpholin-4-ylpropyl)amino]-3-nitrophenyl}sulfonyl)benzamide] was run?
The Ki was 0.106 nM.

Which Ki does the source give for CC1(C)CCC(CN2CCN(c3ccc(C(=O)NS(=O)(=O)c4ccc(NCC5CCOCC5)c([N+](=O)[O-])c4)c(Oc4cccc5[nH]cc(Cl)c45)c3)CC2)=C(c2ccc(Cl)cc2)C1 [Example 266, 2-[(3-chloro-1H-indol-4-yl)oxy]-4-(4-{[2-(4-chlorophenyl)-4,4-dimethylcyclohex-1-en-1-yl]methyl}piperazin-1-yl)-N-({3-nitro-4-[(tetrahydro-2H-pyran-4-ylmethyl)amino]phenyl}sulfonyl)benzamide] here?
Its Ki is 0.81 nM.

With CC1(C)CCC(CN2CCN(c3ccc(C(=O)NS(=O)(=O)c4cnc(OCC5(F)CCOCC5)c(F)c4)c(Oc4cnc(N)c(Cl)c4)c3)CC2)=C(c2ccc(Cl)cc2)C1 [Example 402, 2-[(6-amino-5-chloropyridin-3-yl)oxy]-4-(4-{[2-(4-chlorophenyl)-4,4-dimethylcyclohex-1-en-1-yl]methyl}piperazin-1-yl)-N-({5-fluoro-6-[(4-fluorotetrahydro-2H-pyran-4-yl)methoxy]pyridin-3-yl}sulfonyl)benzamide] as the molecule, how does the Ki read?
The Ki was 0.039 nM.

How did the Ki turn out when O=C(NS(=O)(=O)c1ccc(NCCCN2CCOCC2)c([N+](=O)[O-])c1)c1ccc(N2CCN(Cc3ccccc3-c3ccc(Cl)cc3)CC2)cc1Oc1cccc(OCc2ccccc2)c1 [Example 93, 2-(3-(benzyloxy)phenoxy)-4-(4-((4′-chloro-1,1′-biphenyl-2-yl)methyl)piperazin-1-yl)-N-((4-((3-morpholin-4-ylpropyl)amino)-3-nitrophenyl)sulfonyl)benzamide] was run?
Its Ki is 16.8 nM.

CC1(C)CCC(CN2CCN(c3ccc(C(=O)NS(=O)(=O)c4ccc(NCCCN5CCOCC5)c(S(=O)(=O)C(F)(F)F)c4)c(Oc4cnc(N)c(Cl)c4)c3)CC2)=C(c2ccc(Cl)cc2)C1 [Example 347, 2-[(6-amino-5-chloropyridin-3-yl)oxy]-4-(4-{[2-(4-chlorophenyl)-4,4-dimethylcyclohex-1-en-1-yl]methyl}piperazin-1-yl)-N-({4-[(3-morpholin-4-ylpropyl)amino]-3-[(trifluoromethyl)sulfonyl]phenyl}sulfonyl)benzamide] was tested. Which Ki did it give?
Its Ki is 0.377 nM.

For CC1(C)CCC(CN2CCN(c3ccc(C(=O)NS(=O)(=O)c4ccc(NC5CCN(C6CCOCC6)CC5)c([N+](=O)[O-])c4)c(-c4ccc(N)nc4)c3)CC2)=C(c2ccc(Cl)cc2)C1 [Example 255, 2-(6-aminopyridin-3-yl)-4-(4-{[2-(4-chlorophenyl)-4,4-dimethylcyclohex-1-en-1-yl]methyl}piperazin-1-yl)-N-({3-nitro-4-[(1-tetrahydro-2H-pyran-4-ylpiperidin-4-yl)amino]phenyl}sulfonyl)benzamide], which Ki is on record?
The Ki was 7.01 nM.

Which Ki does the source give for CC1(C)CCC(CN2CCN(c3ccc(C(=O)NS(=O)(=O)c4ccc(NC5CCN(C6CCCC6)CC5)c([N+](=O)[O-])c4)c(Oc4cccc(Cl)c4)c3)CC2)=C(c2ccc(Cl)cc2)C1 [Example 130, 2-(3-chlorophenoxy)-4-(4-{[2-(4-chlorophenyl)-4,4-dimethylcyclohex-1-en-1-yl]methyl}piperazin-1-yl)-N-({4-[(1-cyclopentylpiperidin-4-yl)amino]-3-nitrophenyl}sulfonyl)benzamide] here?
Its Ki is 0.067 nM.

CC1(C)CCC(CN2CCN(c3ccc(C(=O)NS(=O)(=O)c4ccc(NCC5CCOCC5)c([N+](=O)[O-])c4)c(Oc4cc(N)cc(Cl)c4)c3)CC2)=C(c2ccc(Cl)cc2)C1 [Example 309, 2-(3-amino-5-chlorophenoxy)-4-(4-{[2-(4-chlorophenyl)-4,4-dimethylcyclohex-1-en-1-yl]methyl}piperazin-1-yl)-N-({3-nitro-4-[(tetrahydro-2H-pyran-4-ylmethyl)amino]phenyl}sulfonyl)benzamide] was tested. Which Ki did it give?
The Ki was 0.69 nM.

Which Ki does the source give for CCN1CCC(Nc2ccc(S(=O)(=O)NC(=O)c3ccc(N4CCN(CC5=C(c6ccc(Cl)cc6)CC(C)(C)CC5)CC4)cc3Oc3cccc(Cl)c3)cc2[N+](=O)[O-])CC1 [Example 174, 2-(3-chlorophenoxy)-4-(4-{[2-(4-chlorophenyl)-4,4-dimethylcyclohex-1-en-1-yl]methyl}piperazin-1-yl)-N-({4-[(1-ethylpiperidin-4-yl)amino]-3-nitrophenyl}sulfonyl)benzamide] here?
The Ki was 0.037 nM.

How did the Ki turn out when CC1(C)CCC(CN2CCN(c3ccc(C(=O)NS(=O)(=O)c4ccc(NC5CCN(CCN6CCOCC6)CC5)c([N+](=O)[O-])c4)c(Oc4cccc(Cl)c4)c3)CC2)=C(c2ccc(Cl)cc2)C1 [Example 190, 2-(3-chlorophenoxy)-4-(4-{[2-(4-chlorophenyl)-4,4-dimethylcyclohex-1-en-1-yl]methyl}piperazin-1-yl)-N-[(4-{[1-(2-morpholin-4-ylethyl)piperidin-4-yl]amino}-3-nitrophenyl)sulfonyl]benzamide] was run?
The Ki was 0.077 nM.

CC1(C)CCC(CN2CCN(c3ccc(C(=O)NS(=O)(=O)c4ccc(NCC5CCOCC5)c([N+](=O)[O-])c4)c(Oc4ccc(N)nc4)c3)CC2)=C(c2ccc(Cl)cc2)C1 [Example 272, 2-[(6-aminopyridin-3-yl)oxy]-4-(4-{[2-(4-chlorophenyl)-4,4-dimethylcyclohex-1-en-1-yl]methyl}piperazin-1-yl)-N-({3-nitro-4-[(tetrahydro-2H-pyran-4-ylmethyl)amino]phenyl}sulfonyl)benzamide] was tested. Which Ki did it give?
The Ki was 1.24 nM.

How did the Ki turn out when CC1(C)CCC(CN2CCN(c3ccc(C(=O)NS(=O)(=O)c4cnc(NC5CCN(C6CCOCC6)CC5)c(Br)c4)c(Oc4cc5cc[nH]c5cc4F)c3)CC2)=C(c2ccc(Cl)cc2)C1 [Example 312, N-({5-bromo-6-[(1-tetrahydro-2H-pyran-4-ylpiperidin-4-yl)amino]pyridin-3-yl}sulfonyl)-4-(4-{[2-(4-chlorophenyl)-4,4-dimethylcyclohex-1-en-1-yl]methyl}piperazin-1-yl)-2-[(6-fluoro-1H-indol-5-yl)oxy]benzamide] was run?
Its Ki is 0.531 nM.

O=C(NS(=O)(=O)c1ccc(NCC2CCOCC2)c([N+](=O)[O-])c1)c1ccc(N2CCN(Cc3ccccc3-c3ccc(Cl)cc3)CC2)cc1Oc1ccc2[nH]cc(CCC(=O)N3CCOCC3)c2c1 [Example 73, 4-(4-((4′-chloro-1,1′-biphenyl-2-yl)methyl)piperazin-1-yl)-2-((3-(3-morpholin-4-yl-3-oxopropyl)-1H-indol-5-yl)oxy)-N-((3-nitro-4-((tetrahydro-2H-pyran-4-ylmethyl)amino)phenyl)sulfonyl)benzamide] was tested. Which Ki did it give?
Its Ki is 32.3 nM.

How did the Ki turn out when CC1(C)CCC(CN2CCN(c3ccc(C(=O)NS(=O)(=O)c4ccc(NCC5CN(C6CC6)CCO5)c([N+](=O)[O-])c4)c(Oc4cnc(N)c(Cl)c4)c3)CC2)=C(c2ccc(Cl)cc2)C1 (stereo not shown) [Example 369, 2-[(6-amino-5-chloropyridin-3-yl)oxy]-4-(4-{[2-(4-chlorophenyl)-4,4-dimethylcyclohex-1-en-1-yl]methyl}piperazin-1-yl)-N-[(4-{[(4-cyclopropylmorpholin-2-yl)methyl]amino}-3-nitrophenyl)sulfonyl]benzamide] was run?
The Ki was 0.014 nM.
